Values of other authors in article PMC11258486, “Phase 1 dose escalation study of the MDM2 inhibitor milademetan as monotherapy and in combination with azacitidine in patients with myeloid malignancies” (Cancer Medicine, 2024).

What was measured:
AML = system: AML; design: method as in PMID 26459177; settings: phase 1 clinical study in AML; cited from earlier work
relapsed/refractory AML = system: relapsed/refractory AML; design: method as in PMID 35413116; settings: relapsed/refractory AML and wild‐type p53; cited from earlier work

Compound | response rate (AML) | overall response rate (relapsed/refractory AML)
CCOc1cc(C(C)(C)C)ccc1C1=N[C@@](C)(c2ccc(Cl)cc2)[C@@](C)(c2ccc(Cl)cc2)N1C(=O)N1CCN(CCCS(C)(=O)=O)CC1 [RG7112] | ~ 25% | –
Nc1ccn([C@@H]2O[C@H](CO)[C@@H](O)[C@@H]2O)c(=O)n1 [cytarabine] | – | 22%
